target: T1, Human BCL6 protein (N-terminal HiBiT tagged BCL6 in HT1080 cells) (Homo sapiens, UniProt P41182+Q96SW2); experiment: HiBiT based BCL6 degradation assay; format: cell-based; conditions: HT1080 cells expressing N-terminal HiBiT tagged BCL6; 5 hours incubation; BCL6 degradation normalized with DMSO control
T1 construct: Human BCL6 protein coding open reading frame; expressed in transfected cells; host or cells: HT1080 (ATCC CCL-121), stably transduced with lentivirus pLV-UBC-N-HiBiT-BCL6-PGK-puro
Method in brief: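 HT1080 cells stably expressing N-terminal HiBiT-BCL6 were treated with compound dilution series for 5 h at 37° C. in RPMI 1640 with 10% FBS. HiBiT lytic luminescence read after 15 min; degradation normalized to DMSO, with curves fitted by four-parameter logistic model.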

Row | Structure (SMILES) | Ymin (5 hr)
1 | CNC(=O)COc1cc2cc(Nc3nc(N4CCC[C@H](Nc5ccc6c(C7CCC(=O)NC7=O)nn(C)c6c5)C4)ncc3Cl)ccc2n(C)c1=O (stereo partly drawn) [Compound 280a, 2-((6-((5-chloro-2-((3S)-3-((3-(2,6-dioxopiperidin-3-yl)-1-methyl-1H-indazol-6-yl)amino)piperidin-1-yl)pyrimidin-4-yl)amino)-1-methyl-2-oxo-1,2-dihydroquinolin-3-yl)oxy)-N-methylacetamide] | ++ (50% < Ymin ≤ 70%)
2 | CNC(=O)COc1cc2cc(Nc3nc(N4CCC(CN5CCN(c6cccc7c(C8CCC(=O)NC8=O)nn(C)c67)CC5)CC4)ncc3Cl)ccc2n(C)c1=O (stereo not shown) [Compound 333, 2-((6-((5-chloro-2-(4-((4-(3-(2,6-dioxopiperidin-3-yl)-1-methyl-1H-indazol-7-yl)piperazin-1-yl)methyl)piperidin-1-yl)pyrimidin-4-yl)amino)-1-methyl-2-oxo-1,2-dihydroquinolin-3-yl)oxy)-N-methylacetamide] | ++++ (Ymin ≤ 25%)
3 | CNC(=O)COc1cc2cc(Nc3nc(N4CCN(C[C@@H]5CCN(c6cccc7c(C8CCC(=O)NC8=O)nn(C)c67)C5)CC4)ncc3Cl)ccc2n(C)c1=O (stereo partly drawn) [Compound 305b, 2-((6-((5-chloro-2-(4-(((3S)-1-(3-(2,6-dioxopiperidin-3-yl)-1-methyl-1H-indazol-7-yl)pyrrolidin-3-yl)methyl)piperazin-1-yl)pyrimidin-4-yl)amino)-1-methyl-2-oxo-1,2-dihydroquinolin-3-yl)oxy)-N-methylacetamide] | +++ (25% < Ymin ≤ 50%)
4 | CNC(=O)COc1cc2cc(Nc3nc(N4CCC(CN5CCN(C(=O)c6cccc7c(C8CCC(=O)NC8=O)nn(C)c67)CC5)CC4)ncc3Cl)ccc2n(C)c1=O (stereo not shown) [Compound 324, 2-((6-((5-chloro-2-(4-((4-(3-(2,6-dioxopiperidin-3-yl)-1-methyl-1H-indazole-7-carbonyl)piperazin-1-yl)methyl)piperidin-1-yl)pyrimidin-4-yl)amino)-1-methyl-2-oxo-1,2-dihydroquinolin-3-yl)oxy)-N-methylacetamide] | +++ (25% < Ymin ≤ 50%)
5 | CNC(=O)COc1cc2cc(Nc3nc(N4CC[C@H](COc5ccc6c(C7CCC(=O)NC7=O)nn(C)c6c5)C4)ncc3Cl)ccc2n(C)c1=O (stereo partly drawn) [Compound 313a, 2-((6-((5-chloro-2-((3S)-3-(((3-(2,6-dioxopiperidin-3-yl)-1-methyl-1H-indazol-6-yl)oxy)methyl)pyrrolidin-1-yl)pyrimidin-4-yl)amino)-1-methyl-2-oxo-1,2-dihydroquinolin-3-yl)oxy)-N-methylacetamide] | ++ (50% < Ymin ≤ 70%)
6 | CNC(=O)COc1cc2cc(Nc3nc(N4CCN([C@H](C)C5CCN(c6cccc7c(C8CCC(=O)NC8=O)nn(C)c67)CC5)CC4)ncc3Cl)ccc2n(C)c1=O (single isomer, unassigned) [Compound 307b] | +++ (25% < Ymin ≤ 50%)
7 | CNC(=O)COc1cc2cc(Nc3nc(N4CCC[C@@H]4CNc4cccc(C5CCC(=O)NC5=O)c4)ncc3Cl)ccc2n(C)c1=O (stereo partly drawn) [Compound 260a, 2-((6-((5-chloro-2-((2R)-2-(((3-(2,6-dioxopiperidin-3-yl)phenyl)amino)methyl)pyrrolidin-1-yl)pyrimidin-4-yl)amino)-1-methyl-2-oxo-1,2-dihydroquinolin-3-yl)oxy)-N-methylacetamide] | ++ (50% < Ymin ≤ 70%)
8 | CNC(=O)COc1cc2cc(Nc3nc(N4CCC(OC5CCN(c6ccc7c(C8CCC(=O)NC8=O)nn(C)c7c6)CC5)CC4)ncc3Cl)ccc2n(C)c1=O (stereo not shown) [Compound 287, 2-((6-((5-chloro-2-(4-((1-(3-(2,6-dioxopiperidin-3-yl)-1-methyl-1H-indazol-6-yl)piperidin-4-yl)oxy)piperidin-1-yl)pyrimidin-4-yl)amino)-1-methyl-2-oxo-1,2-dihydroquinolin-3-yl)oxy)-N-methylacetamide] | +++ (25% < Ymin ≤ 50%)
9 | CNC(=O)COc1cc2cc(Nc3nc(N4CCC[C@H](CNc5cccc6c(C7CCC(=O)NC7=O)nn(C)c56)C4)ncc3Cl)ccc2n(C)c1=O (stereo partly drawn) [Compound 266b, 2-((6-((5-chloro-2-((3R)-3-(((3-(2,6-dioxopiperidin-3-yl)-1-methyl-1H-indazol-7-yl)amino)methyl)piperidin-1-yl)pyrimidin-4-yl)amino)-1-methyl-2-oxo-1,2-dihydroquinolin-3-yl)oxy)-N-methylacetamide] | ++ (50% < Ymin ≤ 70%)
10 | CC(=O)COc1cc2cc(Nc3nc(N4CCC5(CCN(CC6CCN(c7ccc8c(C9CCC(=O)NC9=O)nn(C)c8c7)CC6)CC5)CC4)ncc3Cl)ccc2n(C)c1=O (stereo not shown) [Compound 348, 3-(6-(4-((9-(5-chloro-4-((1-methyl-2-oxo-3-(2-oxopropoxy)-1,2-dihydroquinolin-6-yl)amino)pyrimidin-2-yl)-3,9-diazaspiro[5.5]undecan-3-yl)methyl)piperidin-1-yl)-1-methyl-1H-indazol-3-yl)piperidine-2,6-dione] | ++++ (Ymin ≤ 25%)
11 | CNC(=O)COc1cc2cc(Nc3nc(N4CCN(C5CN(c6ccc7c(C8CCC(=O)NC8=O)nn(C)c7c6)C5)CC4)ncc3Cl)ccc2n(C)c1=O (stereo not shown) [Compound 282, 2-((6-((5-chloro-2-(4-(1-(3-(2,6-dioxopiperidin-3-yl)-1-methyl-1H-indazol-6-yl)azetidin-3-yl)piperazin-1-yl)pyrimidin-4-yl)amino)-1-methyl-2-oxo-1,2-dihydroquinolin-3-yl)oxy)-N-methylacetamide] | +++ (25% < Ymin ≤ 50%)
12 | CNC(=O)COc1cc2cc(Nc3nc(N4CCC[C@H]4CNc4cccc(C5CCC(=O)NC5=O)c4)ncc3Cl)ccc2n(C)c1=O (stereo partly drawn) [Compound 260b, 2-((6-((5-chloro-2-((2S)-2-(((3-(2,6-dioxopiperidin-3-yl)phenyl)amino)methyl)pyrrolidin-1-yl)pyrimidin-4-yl)amino)-1-methyl-2-oxo-1,2-dihydroquinolin-3-yl)oxy)-N-methylacetamide] | + (Ymin > 70%)
13 | CNC(=O)COc1cc2cc(Nc3nc(N4CCN(C(C)(C)C5CCN(c6ccc7c(C8CCC(=O)NC8=O)nn(C)c7c6)CC5)CC4)ncc3Cl)ccc2n(C)c1=O (stereo not shown) [Compound 340, 2-((6-((5-chloro-2-(4-(2-(1-(3-(2,6-dioxopiperidin-3-yl)-1-methyl-1H-indazol-6-yl)piperidin-4-yl)propan-2-yl)piperazin-1-yl)pyrimidin-4-yl)amino)-1-methyl-2-oxo-1,2-dihydroquinolin-3-yl)oxy)-N-methylacetamide] | +++ (25% < Ymin ≤ 50%)
14 | CNC(=O)COc1cc2cc(Nc3nc(N4CCC[C@@H]4CNc4cccc5c(C6CCC(=O)NC6=O)nn(C)c45)ncc3Cl)ccc2n(C)c1=O (stereo partly drawn) [Compound 300a, 2-((6-((5-chloro-2-((2R)-2-(((3-(2,6-dioxopiperidin-3-yl)-1-methyl-1H-indazol-7-yl)amino)methyl)pyrrolidin-1-yl)pyrimidin-4-yl)amino)-1-methyl-2-oxo-1,2-dihydroquinolin-3-yl)oxy)-N-methylacetamide] | ++ (50% < Ymin ≤ 70%)
15 | CNC(=O)COc1cc2cc(Nc3nc(N4CCN(CC5CCC6(CC5)CN(c5ccc7c(C8CCC(=O)NC8=O)nn(C)c7c5)C6)CC4)ncc3Cl)ccc2n(C)c1=O (stereo not shown) [Compound 103, 2-((6-((5-chloro-2-(4-((2-(3-(2,6-dioxopiperidin-3-yl)-1-methyl-1H-indazol-6-yl)-2-azaspiro[3.5]nonan-7-yl)methyl)piperazin-1-yl)pyrimidin-4-yl)amino)-1-methyl-2-oxo-1,2-dihydroquinolin-3-yl)oxy)-N-methylacetamide] | ++++ (Ymin ≤ 25%)
16 | CNC(=O)COc1cc2cc(Nc3nc(N4CCC[C@@H](CNc5ccc6c(C7CCC(=O)NC7=O)nn(C)c6c5)C4)ncc3Cl)ccc2n(C)c1=O (stereo partly drawn) [Compound 261a, 2-((6-((5-chloro-2-((3S)-3-(((3-(2,6-dioxopiperidin-3-yl)-1-methyl-1H-indazol-6-yl)amino)methyl)piperidin-1-yl)pyrimidin-4-yl)amino)-1-methyl-2-oxo-1,2-dihydroquinolin-3-yl)oxy)-N-methylacetamide] | ++ (50% < Ymin ≤ 70%)
17 | CNC(=O)COc1cc2cc(Nc3nc(N4CCCC5(CCN(c6ccc7c(C8CCC(=O)NC8=O)nn(C)c7c6)C5)C4)ncc3Cl)ccc2n(C)c1=O (stereo not shown) [Compound 331, 2-((6-((5-chloro-2-(2-(3-(2,6-dioxopiperidin-3-yl)-1-methyl-1H-indazol-6-yl)-2,7-diazaspiro[4.5]decan-7-yl)pyrimidin-4-yl)amino)-1-methyl-2-oxo-1,2-dihydroquinolin-3-yl)oxy)-N-methylacetamide] | +++ (25% < Ymin ≤ 50%)
18 | CNC(=O)COc1cc2cc(Nc3nc(N4CCC(CNC(=O)c5cccc(C6CCC(=O)NC6=O)c5)CC4)ncc3Cl)ccc2n(C)c1=O (stereo not shown) [Compound 105, N-((1-(5-chloro-4-((1-methyl-3-(2-(methylamino)-2-oxoethoxy)-2-oxo-1,2-dihydroquinolin-6-yl)amino)pyrimidin-2-yl)piperidin-4-yl)methyl)-3-(2,6-dioxopiperidin-3-yl)benzamide] | ++ (50% < Ymin ≤ 70%)
19 | CNC(=O)COc1cc2cc(Nc3nc(N4CCC[C@@H](Nc5ccc6c(C7CCC(=O)NC7=O)nn(C)c6c5)C4)ncc3Cl)ccc2n(C)c1=O (stereo partly drawn) [Compound 280b, 2-((6-((5-chloro-2-((3R)-3-((3-(2,6-dioxopiperidin-3-yl)-1-methyl-1H-indazol-6-yl)amino)piperidin-1-yl)pyrimidin-4-yl)amino)-1-methyl-2-oxo-1,2-dihydroquinolin-3-yl)oxy)-N-methylacetamide] | + (Ymin > 70%)

From patent US20250270191A1, “QUINOLONE BCL6 BIFUNCTIONAL DEGRADERS” (Treeline Biosciences, Inc., priority 2022, published 2025)
